Measurements reported in BindingDB's records for doi:10.7270/Q2D798VP (Broad Institute, 2009).
pEC50: −log10 of the molar value. Where a name gives a salt, the structure may show the parent alone.

Target: T1, Zinc finger protein mex-5 (Caenorhabditis elegans, UniProt Q9XUB2)
T1 sequence (Q9XUB2 whole entry): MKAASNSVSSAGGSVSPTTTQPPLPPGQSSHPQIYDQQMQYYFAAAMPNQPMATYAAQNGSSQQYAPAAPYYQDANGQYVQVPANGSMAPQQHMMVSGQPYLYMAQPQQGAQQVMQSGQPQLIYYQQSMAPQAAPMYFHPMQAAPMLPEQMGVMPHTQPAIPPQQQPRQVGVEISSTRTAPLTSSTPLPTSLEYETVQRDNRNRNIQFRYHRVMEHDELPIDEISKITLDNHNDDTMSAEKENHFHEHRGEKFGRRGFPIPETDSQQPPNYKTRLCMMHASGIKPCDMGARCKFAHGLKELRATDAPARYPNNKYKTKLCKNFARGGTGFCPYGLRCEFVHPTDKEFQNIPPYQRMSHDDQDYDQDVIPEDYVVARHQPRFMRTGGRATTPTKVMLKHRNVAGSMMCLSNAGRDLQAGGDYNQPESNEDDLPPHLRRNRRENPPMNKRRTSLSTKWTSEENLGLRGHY
Assay: potency of MEX-5 RNA-binding blockers – biochemical, C. elegans, fluorescence polarization, dose response (AID 1960)

SMILES	pEC50
O=NC1CC2(CC(N=O)C1N=O)OCCO2 (stereo not given) [9-(hydroxyamino)-8-nitroso-1,4-dioxaspiro[4.5]dec-8-en-7-one oxime]	4.89
Cc1ccc(N=CC2Sc3ccccc3NC2=O)cc1 (stereo not given) [(2E)-2-(p-toluidinomethylene)-4H-1,4-benzothiazin-3-one]	< 3.52
CC1=C(C#N)C(=O)N(C)C(=O)C1=CNNc1ccc(F)cc1 [MLS000702698]	< 3.52
O=C1NC(=O)N(c2cccc(F)c2)C(=O)C1=Cc1c[nH]c2ccccc12	4.44
O=C(Cc1nc2cc([N+](=O)[O-])ccc2[nH]c1=O)c1ccccc1 [6-Nitro-3-(2-oxo-2-phenyl-ethylidene)-3,4-dihydro-1H-quinoxalin-2-one]	< 3.52
COc1cc(C2C3=C(CC(C)(C)CC3=O)OC(=N)C2C#N)ccc1OCCN1CCOCC1 (stereo not given) [MLS000779948]	< 3.52
Cc1cc(O)c(C(C)C)cc1Nc1csc(=O)[nH]1 [SMR000034713]	4.46
O=C1NC(=O)N(CCc2ccccc2)C(=O)C1=CNCCCn1ccnc1 [(5E)-5-[(3-imidazol-1-ylpropylamino)methylene]-1-phenethyl-barbituric acid]	< 3.52
CC(=O)N=c1c(C#N)cc2c(=O)n3cccc(C)c3nc2n1CCCOC(C)C [MLS000332846]	3.64
COc1ccc(C=C2CCCC(C(=O)C(F)(F)F)C2=O)cc1 (stereo not given) [SMR000142699]	4.38
COc1ccc(C(=O)CC=Nc2ccc([N+](=O)[O-])cc2C)c(OC)c1 [(E)-1-(2,4-dimethoxyphenyl)-3-(2-methyl-4-nitro-anilino)prop-2-en-1-one]	< 3.52
COCCNC(=O)Cn1cc(C=C2C(=O)NC(=O)N(c3ccccc3F)C2=O)c2ccccc21 [2-(3-{(E)-[1-(2-fluorophenyl)-2,4,6-trioxotetrahydropyrimidin-5(2H)-ylidene]methyl}-1H-indol-1-yl)-N-(2-methoxyethyl)acetamide]	5.09
CC1(C)CC(=O)C2=C(C1)OC(=N)C(C#N)C2c1cccc(OC(=O)c2ccco2)c1 (stereo not given) [2-furancarboxylic acid [3-(2-amino-3-cyano-7,7-dimethyl-5-oxo-6,8-dihydro-4H-1-benzopyran-4-yl)phenyl] ester]	< 3.52
C=CCOc1cccc(C2C(C(=O)c3ccc(C)o3)C(=O)C(=O)N2c2nnc(C)s2)c1 (stereo not given) [3-(5-methylfuran-2-yl)carbonyl-1-(5-methyl-1,3,4-thiadiazol-2-yl)-4-oxidanyl-2-(3-prop-2-enoxyphenyl)-2H-pyrrol-5-one]	3.68
O=C(Cc1nc2ccccc2n(-c2ccccc2)c1=O)c1ccccc1 [(3Z)-3-phenacylidene-1-phenyl-4H-quinoxalin-2-one]	5.21
COc1ccc(N=C(C)c2sc3ccccc3c2O)cc1 [(2Z)-2-[1-(4-methoxyanilino)ethylidene]-1-benzothiophen-3-one]	4.75
CCOC(=O)C1=C(C)N=c2sc(=Cc3ccc(OCC(=O)O)cc3)c(=O)n2C1c1ccc(OC)cc1OC (stereo not given) [MLS001179101]	4.22
CN(C)c1ccc(O)c2c1CC1CC3C(N(C)C)C(=O)C(C(N)=O)C(=O)[C@@]3(O)C(=O)C1C2=O (stereo partly drawn) [(2E,12aS)-2-[azanyl(oxidanyl)methylidene]-4,7-bis(dimethylamino)-10,11,12a-tris(oxidanyl)-4a,5,5a,6-tetrahydro-4H-tetracene-1,3,12-trione;hydrochloride]	4.43
CN(C)[C@@H]1C(=O)C(C(N)=O)C(=O)[C@@]2(O)C(=O)C3C(=O)c4c(O)cccc4[C@@](C)(O)[C@H]3[C@H](O)[C@@H]12 (stereo partly drawn) [(2E,4S,4aR,5S,5aR,6S,12aS)-2-[azanyl(oxidanyl)methylidene]-4-(dimethylamino)-6-methyl-5,6,10,11,12a-pentakis(oxidanyl)-4,4a,5,5a-tetrahydrotetracene-1,3,12-trione]	4.52
COc1ccc(C2CC(=O)C(=CNCCCO)C(=O)C2)cc1 (stereo not given) [2-[(3-hydroxypropylamino)methylidene]-5-(4-methoxyphenyl)cyclohexane-1,3-dione]	4.42
CN(C)c1ccc(N=Cc2nc(-c3ccccc3)oc2O)cc1 [SMR000009577]	5.28
COc1cccc(C2C3CN(C)CCC3=C(C#N)C(=N)C2(C#N)C#N)c1OC (stereo not given) [6-Amino-8-(2,3-dimethoxy-phenyl)-2-methyl-2,3,8,8a-tetrahydro-1H-isoquinoline-5,7,7-tricarbonitrile]	5.07
Cc1cc(C=NNC(=O)c2cccc(N(C)C)c2)c(C)n1-c1cc(C(=O)O)cc(C(=O)O)c1 [5-[3-((E)-{[3-(dimethylamino)benzoyl]hydrazono}methyl)-2,5-dimethyl-1H-pyrrol-1-yl]isophthalic acid]	3.84
COc1ccc(C2C3=C(CCCC3=O)OC(=N)C2C#N)cc1OC (stereo not given) [2-amino-4-(3,4-dimethoxyphenyl)-5-keto-4,6,7,8-tetrahydrochromene-3-carbonitrile]	< 3.52
COc1cc(C2NC(=S)N=C(C)C2C(=O)OC(C)C)ccc1OC(C)C (stereo not given) [4-(3-methoxy-4-propan-2-yloxyphenyl)-6-methyl-2-sulfanylidene-3,4-dihydro-1H-pyrimidine-5-carboxylic acid propan-2-yl ester]	< 3.52

SMILES	pEC50
O=C(Cc1nc2cc(Cl)ccc2oc1=O)c1ccco1 [(3Z)-6-chloranyl-3-[2-(furan-2-yl)-2-oxidanylidene-ethylidene]-4H-1,4-benzoxazin-2-one]	< 3.52
CN1C(=O)/C(=C/c2ccc(-c3ccccc3[N+](=O)[O-])o2)S/C1=N/c1ccc(Cl)c(C(=O)O)c1 [2-Chloro-5-[3-methyl-5-[1-[5-(2-nitro-phenyl)-furan-2-yl]-meth-(Z)-ylidene]-4-oxo-thiazolidin-(2Z)-ylideneamino]-benzoic acid]	4.65
O=C(c1ccccc1)c1[nH]n(-c2ccccc2)c2c(O)n(-c3ccccc3Cl)c(=O)c1-2 [SMR000212371]	< 3.52
COc1cccc(C2C3=C(CCCC3=O)OC(=N)C2C#N)c1OC(=O)c1ccco1 (stereo not given) [2-(2-amino-3-cyano-5-oxo-5,6,7,8-tetrahydro-4H-chromen-4-yl)-6-methoxyphenyl 2-furoate]	< 3.52
Cc1c(NC=C2C(=O)NC(=O)N(Cc3ccccc3)C2=O)c(=O)n(-c2ccccc2)n1C [(5E)-1-benzyl-5-[[(1,5-dimethyl-3-oxo-2-phenylpyrazol-4-yl)amino]methylidene]-1,3-diazinane-2,4,6-trione]	< 3.52
Cc1[nH]n(C(N)=S)c(=O)c1N=Nc1c(Cl)cc([N+](=O)[O-])cc1Cl [SMR000514008]	4.07
COc1ccc(C(=O)CC=Nc2ccc([N+](=O)[O-])cc2C)cc1OC [(E)-1-(3,4-dimethoxyphenyl)-3-(2-methyl-4-nitro-anilino)prop-2-en-1-one]	3.82
c1ccc(CN=Nc2nc3ccccc3[nH]2)nc1	4.38
COc1ccccc1N1C(=O)NC(=O)C(=Cc2c[nH]c3ccccc23)C1=O [SMR000495900]	< 3.52
COc1ccc(CCN2C(=O)NC(=O)C(=CNc3ccc(NC(C)=O)cc3)C2=O)cc1OC [MLS000332913]	< 3.52
C[C@H]1c2cccc(O)c2C(=O)C2C(=O)[C@]3(O)C(=O)C(C(N)=O)C(=O)[C@@H](N(C)C)[C@@H]3[C@@H](O)[C@@H]21 (stereo not given in full)	4.42
O=C1N=c2ccccc2=C1NNc1ccc(F)cc1	< 3.52
COc1ccc(C(=O)CC2=NCC3c4ccccc4CCN3C2=O)cc1 (stereo not given) [(3Z)-3-[2-(4-methoxyphenyl)-2-oxidanylidene-ethylidene]-2,6,7,11b-tetrahydro-1H-pyrazino[2,1-a]isoquinolin-4-one]	< 3.52
Cc1ccccc1NN=C1C(=O)N(C)c2ccccc21 [MLS001203477]	< 3.52
COc1ccc(C2C(C(C)=O)=C(C)N=c3sc(=Cc4cc(C)n(C)c4C)c(=O)n32)c(OC)c1 (stereo not given)	4.68
CCOC(=O)c1c(NC=C2C(=O)NC(=S)NC2=O)sc(C)c1C [ethyl 2-[[4,6-bis(oxidanylidene)-2-sulfanylidene-1,3-diazinan-5-yl]methylideneamino]-4,5-dimethyl-thiophene-3-carboxylate]	< 3.52
Cc1nnc(=O)[nH]c1N=NCC1C=CC(=O)C([N+](=O)[O-])=C1 (stereo not given) [MLS000585487]	4.18
COc1cc(C2C3=C(CCCC3=O)OC(=N)C2C#N)cc2c1OCO2 (stereo not given)	< 3.52
Cc1nnc(N2C(=O)C(=O)C(C(=O)c3ccco3)C2c2ccc(F)cc2)s1 (stereo not given) [2-(4-fluorophenyl)-3-(furan-2-carbonyl)-4-hydroxy-1-(5-methyl-1,3,4-thiadiazol-2-yl)-2H-pyrrol-5-one]	4.48
N#CC1C(=N)OC2=C(C(=O)CCC2)C1c1ccc2c(c1)OCO2 (stereo not given)	< 3.52
CN1CCC2=C(C#N)C(=N)C(C#N)(C#N)C(c3ccncc3)C2C1 (stereo not given) [6-amino-2-methyl-8-(4-pyridyl)-1,3,8,8a-tetrahydroisoquinoline-5,7,7-tricarbonitrile]	5.11
Cc1nnc(SC(C(=O)O)=C2C(=O)Nc3ccccc32)[nH]1 [(5-Methyl-4H-[1,2,4]triazol-3-ylsulfanyl)-[2-oxo-1,2-dihydro-indol-(3E)-ylidene]-acetic acid]	4.60
COc1ccc(OC)c(N2C(=O)NC(=O)C(=Cc3c[nH]c4ccccc34)C2=O)c1 [(5E)-1-(2,5-dimethoxyphenyl)-5-(1H-indol-3-ylmethylene)pyrimidine-2,4,6(1H,3H,5H)-trione]	< 3.52
Cc1nnc(N2C(=O)C(=O)C(C(=O)c3ccco3)C2c2ccc(C(C)(C)C)cc2)s1 (stereo not given) [2-(4-tert-butylphenyl)-3-(furan-2-carbonyl)-4-hydroxy-1-(5-methyl-1,3,4-thiadiazol-2-yl)-2H-pyrrol-5-one]	5.10
CN(C)CCCNC=C1C(=O)NC(=O)N(CCc2ccc(F)cc2)C1=O [(5E)-5-[[3-(dimethylamino)propylamino]methylene]-1-[2-(4-fluorophenyl)ethyl]barbituric acid]	< 3.52
